Data published in patent publication US9073918B2, “Pyrazolo[4,3-b]pyridine-7-amine inhibitors of ALK5” (Takeda Pharmaceutical Company Limited, priority 2010, dated 2015).

Key:
TGF-β R1 ALK5 = target: T1, TGF-β R1 ALK5 (Homo sapiens, UniProt P36897); assay: In vitro inhibition of ALK5 (LanthaScreen activity assay, TR-FRET); assay type: biochemical
T1 construct: purchased Invitrogen PV5837
T1 sequence (P36897 34-503): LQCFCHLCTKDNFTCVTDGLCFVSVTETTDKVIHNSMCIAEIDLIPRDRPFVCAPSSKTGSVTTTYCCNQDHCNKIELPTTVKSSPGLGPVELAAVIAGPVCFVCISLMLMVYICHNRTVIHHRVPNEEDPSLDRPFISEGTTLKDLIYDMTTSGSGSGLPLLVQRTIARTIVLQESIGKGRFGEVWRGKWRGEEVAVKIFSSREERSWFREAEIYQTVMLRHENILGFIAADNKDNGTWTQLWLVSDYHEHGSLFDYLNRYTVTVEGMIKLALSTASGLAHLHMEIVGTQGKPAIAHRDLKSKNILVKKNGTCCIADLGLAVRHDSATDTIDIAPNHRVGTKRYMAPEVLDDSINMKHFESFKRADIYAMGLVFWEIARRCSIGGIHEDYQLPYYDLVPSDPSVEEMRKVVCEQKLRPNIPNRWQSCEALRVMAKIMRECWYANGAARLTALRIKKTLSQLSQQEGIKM

cellular TGF-β R1 ALK5 = target: T2, cellular TGF-β R1 ALK5 (Homo sapiens, UniProt P36897); assay: Cellular inhibition of ALK5 (CellSensor SBE-bla HEK 293T beta-lactamase reporter); assay type: cell-based; details: cellular inhibition of ALK5, SBE-bla HEK 293T cells, TGFb-1 stimulated 5 hours; average where measured in multiple experiments
T2 construct: host or cells: CellSensor SBE-bla HEK 293T
T2 sequence (P36897 34-503): T1 sequence (P36897 34-503)
Description: Test compounds were screened for cellular TGF-β R1 ALK5 inhibition by use of a CellSensor® SBE-bla HEK 293T (K1550, Invitrogen Corp. Madison, Wis.) cell line. The CellSensor® SBE-bla HEK 293T cell line contains a beta-lactamase reporter gene under control of the SBE response element stably integrated into HEK 293T cells. The SBE response element is a DNA region that binds activated SMADs which results from the binding of TGF-β to, and subsequent activation of ALK5.
The assay procedure was as follows:
CellSensor® SBE-bla HEK 293T cell line were plated at 12,000 cells/well in 40 ul DMEM plus 5 ug/ml blasticidin into 384-well, black-wall, clear-bottom assay plate and incubated overnight.
The following day 5 uL of 10×, 2.5-fold serially diluted test compounds in DMSO were added into cells to a final compound concentration of 1× and DMSO concentration of 0.5%. Assay was incubated for 1 hour at 37° C., 5% CO2, 5 uL of 100 ng/mL TGFb-1 was then added to activate ALK5 and incubated for 5 hours at 37° C., 5% CO2, 10 uL of detector, LiveBLAzer FRET B/G substrate (CCF4-AM, Invitrogen Corp. Madison, Wis.) was added to cells and incubated for 2 hours at RT. Assay was measured using Spectramax, a bottom-read fluorescence plate reader, at excitation setting of 405 nm and emission settings of 460 nm and 530 nm.
Response is defined as the ratio of background corrected 460 nm emission values/background corrected 530 nm emission values. Cellular activity was defined as percent inhibition of uninhibited ALK5 activity (wells treated with DMSO+TGF-β). The percent inhibition of cellular ALK5 at a given compound concentration is defined as: 100%×[1−(response compound+TGF-β/response DMSO+TGF-β)] where response compound+TGF-β is defined as the activity in the presence of test compound and response DMSO+TGF-β is defined as the uninhibited cellular ALK5 activity. The pIC50 value (negative log of the molar concentration of the compound that produces 50% inhibition) of a test compound is calculated by non-linear least squares curve fitting. pIC50 values, the negative of the log of the IC50, are calculated by non-linear curve fitting of the compound concentrations and percent of inhibition to the standard pIC50 equation.
Where inhibition was measured in multiple experiments the value in Table 2 is an average. N.T. means not tested.

Row | Compound | IC50 (TGF-β R1 ALK5) | IC50 (cellular TGF-β R1 ALK5)
1 | Cc1ccc(F)c(-c2cc(Nc3ccnc4cnn(C)c34)ccn2)n1 [Example 65, N-(3′-fluoro-6′-methyl-2,2′-bipyridin-4-yl)-1-methyl-1H-pyrazolo[4,3-b]pyridin-7-amine] | 100 nM | 126 nM
2 | Cc1ccc(F)c(-c2cc(Nc3ccnc4cn(C[C@H](O)CO)nc34)c(C)cn2)n1 [Example 7, (S)-3-(7-(3′-fluoro-5,6′-dimethyl-2,2′-bipyridin-4-ylamino)-2H-pyrazolo[4,3-b]pyridin-2-yl)propane-1,2-diol] | 15.8 nM | 200 nM
3 | Cc1cnc(-c2cc(Cl)ccc2F)cc1Nc1ccnc2cnn(CC(N)=O)c12 [Example 51, 2-(7-(2-(5-chloro-2-fluorophenyl)-5-methylpyridin-4-ylamino)-1H-pyrazolo[4,3-b]pyridin-1-yl)acetamide] | 12.6 nM | 20 nM
4 | Cc1ccc(F)c(-c2cc(Nc3ccnc4cn(CCF)nc34)c(C)cn2)n1 [Example 129, N-(3′-fluoro-5,6′-dimethyl-2,2′-bipyridin-4-yl)-2-(2-fluoroethyl)-2H-pyrazolo[4,3-b]pyridin-7-amine] | 6.31 nM | 15.8 nM
5 | Cc1ccc(F)c(-c2cc(Nc3ccnc4cnn(C(C)C)c34)ccn2)n1 [Example 67, N-(3′-fluoro-6′-methyl-2,2′-bipyridin-4-yl)-1-isopropyl-1H-pyrazolo[4,3-b]pyridin-7-amine] | 126 nM | 126 nM
6 | CCCn1ncc2nccc(Nc3ccnc(-c4cc(Cl)ccc4F)c3)c21 [Example 18, N-(2-(5-chloro-2-fluorophenyl)pyridin-4-yl)-1-propyl-1H-pyrazolo[4,3-b]pyridin-7-amine] | 50.1 nM | 631 nM
7 | Cc1ccc(F)c(-c2cc(Nc3ccnc4cnn(C[C@H](C)O)c34)ccn2)n1 [Example 106, (S)-1-(7-(3′-fluoro-6′-methyl-2,2′-bipyridin-4-ylamino)-1H-pyrazolo[4,3-b]pyridin-1-yl)propan-2-ol] | 126 nM | 1260 nM
8 | Cc1ccc(F)c(-c2cc(Nc3ccnc4cn([C@H]5CCOC5)nc34)c(C)cn2)n1 [Example 140, (S)—N-(3′-fluoro-5,6′-dimethyl-2,2′-bipyridin-4-yl)-2-(tetrahydrofuran-3-yl)-2H-pyrazolo[4,3-b]pyridin-7-amine] | 7.94 nM | 50.1 nM
9 | Cc1ccc(F)c(-c2cc(Nc3ccnc4cn(C[C@H](C)O)nc34)c(C)cn2)n1 [Example 149, (S)-1-(7-(3′-fluoro-5,6′-dimethyl-2,2′-bipyridin-4-ylamino)-2H-pyrazolo[4,3-b]pyridin-2-yl)propan-2-ol] | 6.31 nM | 79.4 nM
10 | CCNC(=O)Cn1cc2nccc(Nc3cc(-c4cc(F)ccc4F)ncc3C)c2n1 [Example 156, 2-(7-(2-(2,5-difluorophenyl)-5-methylpyridin-4-ylamino)-2H-pyrazolo[4,3-b]pyridin-2-yl)-N-ethylacetamide] | 3.16 nM | 126 nM
11 | CCn1cc2ncc(F)c(Nc3cc(-c4nc(C)ccc4F)ncc3C)c2n1 [Example 138, 2-ethyl-6-fluoro-N-(3′-fluoro-5,6′-dimethyl-2,2′-bipyridin-4-yl)-2H-pyrazolo[4,3-b]pyridin-7-amine] | 7.94 nM | 15.8 nM
12 | CNC(=O)n1ncc2nccc(Nc3cc(-c4cc(F)ccc4F)ncc3C)c21 [Example 116, 7-(2-(2,5-difluorophenyl)-5-methylpyridin-4-ylamino)-N-methyl-1H-pyrazolo[4,3-b]pyridine-1-carboxamide] | 1 nM | 25.1 nM
13 | Cc1ccc(F)c(-c2cc(Nc3ccnc4cn(CCC(C)(C)O)nc34)ccn2)n1 [Example 119, 4-(7-(3′-fluoro-6′-methyl-2,2′-bipyridin-4-ylamino)-2H-pyrazolo[4,3-b]pyridin-2-yl)-2-methylbutan-2-ol] | 20 nM | 79.4 nM
14 | Cc1ccc(F)c(-c2cc(Nc3ccnc4cnn(CC(C)(C)O)c34)ccn2)n1 [Example 70, 1-(7-(3′-fluoro-6′-methyl-2,2′-bipyridin-4-ylamino)-1H-pyrazolo[4,3-b]pyridin-1-yl)-2-methylpropan-2-ol] | 15.8 nM | 31.6 nM
